Patent US20050107611A1, “Pyrazolyl-substituted triazoloquinoxalines” (priority 2001, published 2005)

Tests used:
A1 adenosine receptor = target: T1, A1 adenosine receptor (Rattus norvegicus, UniProt P25099); assay: Radioligand binding with [3H]CCPA on A1-adenosine receptors, rat brain cortex membranes; set-up: tissue Pel Freez Company (Rogers, Ark., USA); host or cells: rat brain cerebral cortex membranes; details: for Ki: Table 2, [3H]CCPA, read-out: A1 K1
T1 sequence (P25099 1-326): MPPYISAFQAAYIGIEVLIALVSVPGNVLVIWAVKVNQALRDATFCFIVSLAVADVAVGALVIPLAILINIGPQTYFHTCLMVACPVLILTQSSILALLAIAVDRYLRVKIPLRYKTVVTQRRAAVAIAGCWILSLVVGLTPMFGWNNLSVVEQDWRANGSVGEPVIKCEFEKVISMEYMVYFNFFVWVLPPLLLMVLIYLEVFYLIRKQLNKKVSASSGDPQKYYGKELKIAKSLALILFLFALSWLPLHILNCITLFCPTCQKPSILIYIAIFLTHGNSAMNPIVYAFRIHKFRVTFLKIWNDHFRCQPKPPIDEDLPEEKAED
Source text: (§1) The data of the biological tests that are cited below results from radioligand-binding assays on A1, A2A, A2B and A3 adenosine receptors (ARs).
(§2) The following selective radioligands are used in the biological tests: • [^3H]CCPA (for A1 ARs) [Klotz et al., Naunyn-Schmiedeberg's Arch. Pharmacol., 340, 679 (1989)] • [^3]MSX-2 (for A2A ARs) [Muiller et al., Eur. J. Pharm. Sci., 10, 259 (2000)] • [^3H]ZM241385 (for A2B ARs_[X.-D. Ji, K. A. Jacobson, Drug Des. Discov., 16, 217 (1999)] • [^3H]PSB-11 (new antagonistic radioligand for human A3 ARs) [M. Dieckmann, M. Thorand, V. Ozola, C. E. Muiller, in Vorbereitung [Preparation] (2001)]. • [^125I]AB-MECA (for rat-A3 ARs) [Olah et al., Mol. Pharmacol., 45, 978 (1994)]. Description of the Assays That are Used for Testing Substances Production of Tissue Preparations Made from Rat Brains
For the preparations, deep-frozen rat brains of the Pel Freez Company (Rogers, Ark., USA) are used. The rat brains are thawed in 0.32 M saccharose solution, the cortex is cut off, and the striata are prepared outside.
The cell decomposing of the cerebral cortex is carried out with a glass-Teflon homogenizer (stages 5-6, 10 seconds) in 0.32 M saccharose solution. The membranes are purified over various centrifuging steps. With centrifuging at 600 g, 4° C., for 10 minutes, a large amount of cell debris is separated via the P1 fraction, and the supernatant (P2 fraction) is further worked up: in the subsequent three centrifuging steps (35,000 g; 4° C.; 60 minutes), a pellet is produced that is resuspended in 50 mmol of TRIS buffer, pH 7.4 with the Ultraturrax (stages 3-4, 3 seconds); the respective supernatant is discarded. The striata are added to cold TRIS buffer, homogenized with the Ultraturrax in stages 3 to 4-(3 seconds) and then centrifuged at 35,000 g, 4° C., for 20 minutes. The supernatant is discarded, and the pellet is resuspended in 50 mmol of TRIS buffer (50 mmol, pH 7.4). The washing process is repeated twice more. The membrane preparations are stored at −80° C. and are held for several months. The cerebral cortex membrane preparation is used for A1-radioligand binding studies, and the striatum is used for A2A-radiologiand binding studies.
(§3) The test substances are dissolved in DMSO to 10 mmol. The final concentration of DMSO in the assay is 2.5% for A1- and A2A-adenosine receptor assays and 1-2% for A2B- and A3-assays. Dilution series of the test substances are produced from the stock solution. Five to eight different test concentrations, which comprise 3 orders of magnitude (e.g., 1 nm to 1000 nm), are used.
Radioligand Binding Studies with [^3H]CCPA on A1-Adenosine Receptors:
The mixture is incubated for 90 minutes in an oscillating water bath at 23° C. Then, it is filtered off with a Brandel cell-harvester and washed twice more with ice-cooled TRIS buffer, 50 mmol, pH 7.4 (3 ml). The filter plates are conveyed in scintillation vials, doused with 2.5 ml of Ultima Gold Scintillation cocktail and incubated for at least 6 hours before they are measured in a scintillation counter.
(§4) The mean value is calculated from three independent experiments. IC50 and K, values are obtained from the Cheng-Prusoff equation, the concentration and the KD value of the radioligand. For calculation, the program GraphPadPrism™, Version 3.0 (GraphPad, San Diego, Calif., USA), was used.

[1] = target: T2, human A3 adenosine receptor (Homo sapiens, UniProt P0DMS8); assay: Receptor binding assay with [3H]PSB-11 on recombinant A3-adenosine receptors expressed in CHO cells; details: for Ki: Table 2, [3H]PSB-11, read-out: A3 K1
T2 construct: expressed in transfected cells; host or cells: CHO cells
T2 sequence (P0DMS8 1-318): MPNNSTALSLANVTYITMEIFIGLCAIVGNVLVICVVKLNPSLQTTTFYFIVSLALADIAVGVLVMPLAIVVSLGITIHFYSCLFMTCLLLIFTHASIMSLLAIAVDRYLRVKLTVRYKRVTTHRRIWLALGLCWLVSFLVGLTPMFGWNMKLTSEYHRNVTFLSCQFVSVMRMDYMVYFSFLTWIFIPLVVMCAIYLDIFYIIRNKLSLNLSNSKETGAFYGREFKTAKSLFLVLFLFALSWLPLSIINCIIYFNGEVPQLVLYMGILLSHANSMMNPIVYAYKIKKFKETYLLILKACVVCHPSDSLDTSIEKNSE
Source text: as §1, §2
For CHO cells, which express the A3-adenosine receptor, the operating steps are also performed analogously to the A1-adenosine receptor-CHO culture. The medium is used as described above.
Preparation of Recombinant Human A3-Adenosine Receptors Expressed in CHO Cells for A3-Adenosine Receptor Binding Studies
2 to 3 ml of ice-cold TRIS buffer (pH 7.4; 50 mmol) is added to the tissue culture dishes. The cells are scraped off from the plates with a rubber scraper and collected in a beaker. The plates are rinsed with another 1 to 2 ml of TRIS buffer (pH 7.4; 50 mmol). The cell suspension is dispersed into centrifuge tubes and centrifuged at 4° C., 35,000 g, for 20 minutes. The supernatant is discarded, and the pellet is resuspended in TRIS buffer (pH 7.4; 50 mmol) with the homogenizer at the highest level for 3 to 4 seconds. This suspension is again centrifuged. The washing process is repeated another time. The pellet that is obtained is resuspended with the least possible TRIS buffer (pH 7.4; 50 mmol) and delivered in aliquots (0.25 ml and 0.5 ml).
as §3
Receptor Binding Assay with [^3H]PSB-11 on Recombinant A3-Adenosine Receptors Expressed in CHO Cells:
The assay is performed with […] according to the instructions under the receptor-binding assays with consideration for the above-listed amounts and solutions. The dilution in the assay is 1:50. The DMSO content is 2% here. The incubation at 23° C. in the oscillating water bath lasts for 45 minutes.
as §4

Row | Ki (A1 adenosine receptor) | Ki [1] | A3 % inhib. @ 1 μmol [1] | Compound | A1 % inhib. @ 10 μmol (A1 adenosine receptor)
1 | 320 nM | > 1000 nM | (31%) | Clc1cc(-c2nc3ccccc3n3c(-c4ccoc4)nnc23)n[nH]1 [Y = C-(3-Furyl), R5 = H, R6 = Cl] | –
2 | 900 nM | 1.9 nM | – | COc1ccc2c(c1)nc(-c1cc(Cl)n[nH]1)c1nnc(Cc3cccs3)n12 [4-[3(5)-Chloro-1H-pyrazol-5(3)-yl]-7-methoxy-1-(2-thienylmethyl)-[1,2,4]triazolo[4,3-a]-quinoxaline] | –
3 | > 10000 nM | 372 nM | – | COc1ccc2c(c1)nc(-c1cc(Cl)[nH]n1)c1nncn12 [Y = C—H, R3 = OCH3, R5 = H, R6 = Cl, 4-[3(5)-Chloro-1H-pyrazol-5(3)-yl]-7-methoxy-[1,2,4]triazolo[4,3-a]-quinoxaline] | (13%)
4 | 210 nM | 86 nM | – | Cn1nc(-c2nc3ccccc3n3c(Cc4cccs4)nnc23)cc1Cl [Y = C—CH2-(2-Thienyl), R5 = CH3, R6 = Cl, 4-(5-Chloro-1H-1-methyl-pyrazol-3-yl)-1-(2-thienylmethyl)-[1,2,4]triazolo[4,3-a]-quinoxaline] | –
5 | 670 nM | – | (53%) | Clc1cc(-c2nc3ccccc3n3nnnc23)n[nH]1 [Y = N, R5 = H, R6 = Cl, 4-[3(5)-Chloro-1H-pyrazol-5(3)-yl]tetrazolo[1,5-a]quinoxaline] | –

Row | Compound | Ki (A1 adenosine receptor) | Ki [1] | A3 % inhib. @ 1 μmol [1] | A1 % inhib. @ 10 μmol (A1 adenosine receptor)
6 | Clc1cc(-c2nc3ccccc3n3cnnc23)[nH]n1 [Y = C—H, R5 = H, R6 = Cl] | > 10000 nM | 142 nM | – | (35%)
7 | 4-(chloropyrazolyl)-1-(3-phenylpropyl)-[1,2,4-]triazolo[4,3-a]quinoxaline [Y = C—CH2—CH2—CH2-Ph, R5 = H, R6 = Cl] | 6 nM | > 1000 nM | (32%) | –
